Laboratory results published in ChEMBL document CHEMBL1201862, “PubChem BioAssay data set” (2004).
Calls of active or inactive are those of the source.

Experiments:
Assay type in all cases: functional
[1] = target: Glycogen synthase kinase-3 alpha (Homo sapiens, UniProt P49840);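 note: GSK3A result taken from a broad kinome-wide kinase panel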
[2] = target: Cyclin-dependent kinase 8 (Homo sapiens, UniProt P49336); assay: Navigating the Kinome. Panel member name: CDK8
[3] = target: Mitogen-activated protein kinase 14 (Homo sapiens, UniProt Q16539);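 note: part of a kinome-wide panel, MAPK14 entry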
[4] = target: T1, Sentrin-specific protease 8 (Homo sapiens, UniProt Q96LD8);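 note: luminescence read-out of SENP8 inhibition, dose-response confirmation following an ultra-high-throughput screen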
T1 sequence (Q96LD8 whole entry): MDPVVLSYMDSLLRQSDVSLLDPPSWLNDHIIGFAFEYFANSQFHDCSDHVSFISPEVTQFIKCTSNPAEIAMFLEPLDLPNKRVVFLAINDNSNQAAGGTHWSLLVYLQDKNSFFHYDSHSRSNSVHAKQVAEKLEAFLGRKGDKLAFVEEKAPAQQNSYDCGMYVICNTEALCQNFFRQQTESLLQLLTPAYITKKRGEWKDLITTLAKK

[5] = target: T2, Sentrin-specific protease 6 (Homo sapiens, UniProt Q9GZR1);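 note: Luminescence-based dose-response confirmatory assay of SENP6 inhibition, following up an ultra-high-throughput screen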
T2 sequence (Q9GZR1 whole entry): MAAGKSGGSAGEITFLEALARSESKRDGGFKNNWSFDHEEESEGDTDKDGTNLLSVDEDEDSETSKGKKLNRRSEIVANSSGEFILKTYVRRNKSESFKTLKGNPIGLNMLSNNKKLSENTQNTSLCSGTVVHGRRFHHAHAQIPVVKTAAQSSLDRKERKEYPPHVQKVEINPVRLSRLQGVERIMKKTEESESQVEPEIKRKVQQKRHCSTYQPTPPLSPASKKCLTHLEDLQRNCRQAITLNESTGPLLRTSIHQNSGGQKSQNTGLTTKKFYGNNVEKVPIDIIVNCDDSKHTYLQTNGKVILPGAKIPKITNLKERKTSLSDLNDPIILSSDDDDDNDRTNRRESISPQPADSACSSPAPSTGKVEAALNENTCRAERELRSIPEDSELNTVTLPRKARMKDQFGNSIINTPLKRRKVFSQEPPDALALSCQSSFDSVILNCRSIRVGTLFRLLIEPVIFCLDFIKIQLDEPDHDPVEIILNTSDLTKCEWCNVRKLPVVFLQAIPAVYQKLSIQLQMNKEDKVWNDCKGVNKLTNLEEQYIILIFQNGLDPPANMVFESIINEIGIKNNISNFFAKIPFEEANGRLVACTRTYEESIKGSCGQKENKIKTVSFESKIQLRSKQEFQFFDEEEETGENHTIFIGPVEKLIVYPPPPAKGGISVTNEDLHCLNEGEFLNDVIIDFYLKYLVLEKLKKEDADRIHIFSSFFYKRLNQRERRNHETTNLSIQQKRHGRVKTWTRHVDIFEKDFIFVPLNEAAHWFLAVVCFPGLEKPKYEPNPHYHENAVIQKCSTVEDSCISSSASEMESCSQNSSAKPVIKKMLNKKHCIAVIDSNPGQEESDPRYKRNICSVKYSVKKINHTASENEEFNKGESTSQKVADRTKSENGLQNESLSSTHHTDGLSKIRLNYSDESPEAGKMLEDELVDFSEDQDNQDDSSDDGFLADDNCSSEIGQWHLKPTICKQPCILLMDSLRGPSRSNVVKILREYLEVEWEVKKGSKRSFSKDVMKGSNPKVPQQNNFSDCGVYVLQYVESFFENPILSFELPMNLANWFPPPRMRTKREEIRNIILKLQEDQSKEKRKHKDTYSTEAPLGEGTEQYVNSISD

[6] = target: Calcium/calmodulin-dependent protein kinase type II subunit beta (Homo sapiens, UniProt Q13554)
[7] = target: Calcium/calmodulin-dependent protein kinase type 1 (Homo sapiens, UniProt Q14012)
[8] = target: Megakaryocyte-associated tyrosine-protein kinase (Homo sapiens, UniProt P42679);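 note: affinity measured as one member of a kinase panel (Navigating the Kinome) against MATK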
[9] = target: Casein kinase I isoform delta (Homo sapiens, UniProt P48730);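 note: measured as one member (CSNK1D) of a kinome panel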
[10] = target: MAP kinase-activated protein kinase 5 (Homo sapiens, UniProt Q8IW41);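 note: measured as one member of a kinome panel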
[11] = target: Protein kinase C delta type (Homo sapiens, UniProt Q05655)
[12] = target: MAP kinase-interacting serine/threonine-protein kinase 2 (Homo sapiens, UniProt Q9HBH9)
[13] = target: Mitogen-activated protein kinase 13 (Homo sapiens, UniProt O15264)
Sequence of Mitogen-activated protein kinase 13 (O15264 whole entry): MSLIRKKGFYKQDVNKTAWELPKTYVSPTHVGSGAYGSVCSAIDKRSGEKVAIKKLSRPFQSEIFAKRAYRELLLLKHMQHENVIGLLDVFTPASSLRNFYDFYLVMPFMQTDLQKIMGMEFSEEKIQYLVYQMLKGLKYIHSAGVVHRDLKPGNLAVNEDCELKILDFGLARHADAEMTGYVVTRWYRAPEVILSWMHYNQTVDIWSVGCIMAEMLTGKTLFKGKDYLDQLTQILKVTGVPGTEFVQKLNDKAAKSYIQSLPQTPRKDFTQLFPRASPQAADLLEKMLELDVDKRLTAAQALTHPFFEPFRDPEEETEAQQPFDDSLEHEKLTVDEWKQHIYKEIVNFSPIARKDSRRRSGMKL

Sequence of Glycogen synthase kinase-3 alpha (P49840 whole entry): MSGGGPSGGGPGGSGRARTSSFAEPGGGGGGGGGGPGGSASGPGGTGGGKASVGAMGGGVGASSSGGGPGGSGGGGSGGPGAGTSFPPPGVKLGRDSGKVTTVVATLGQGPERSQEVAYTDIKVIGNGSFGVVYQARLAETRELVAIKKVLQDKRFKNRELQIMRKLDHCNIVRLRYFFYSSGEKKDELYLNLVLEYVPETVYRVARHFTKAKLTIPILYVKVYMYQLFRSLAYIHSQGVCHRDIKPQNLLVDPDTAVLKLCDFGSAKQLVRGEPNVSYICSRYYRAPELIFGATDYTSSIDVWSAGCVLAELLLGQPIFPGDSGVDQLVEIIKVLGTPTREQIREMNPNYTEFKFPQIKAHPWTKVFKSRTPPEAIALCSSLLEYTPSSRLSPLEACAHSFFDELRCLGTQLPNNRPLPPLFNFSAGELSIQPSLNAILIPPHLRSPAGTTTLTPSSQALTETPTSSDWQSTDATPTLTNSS
Sequence of Calcium/calmodulin-dependent protein kinase type II subunit beta (Q13554 whole entry): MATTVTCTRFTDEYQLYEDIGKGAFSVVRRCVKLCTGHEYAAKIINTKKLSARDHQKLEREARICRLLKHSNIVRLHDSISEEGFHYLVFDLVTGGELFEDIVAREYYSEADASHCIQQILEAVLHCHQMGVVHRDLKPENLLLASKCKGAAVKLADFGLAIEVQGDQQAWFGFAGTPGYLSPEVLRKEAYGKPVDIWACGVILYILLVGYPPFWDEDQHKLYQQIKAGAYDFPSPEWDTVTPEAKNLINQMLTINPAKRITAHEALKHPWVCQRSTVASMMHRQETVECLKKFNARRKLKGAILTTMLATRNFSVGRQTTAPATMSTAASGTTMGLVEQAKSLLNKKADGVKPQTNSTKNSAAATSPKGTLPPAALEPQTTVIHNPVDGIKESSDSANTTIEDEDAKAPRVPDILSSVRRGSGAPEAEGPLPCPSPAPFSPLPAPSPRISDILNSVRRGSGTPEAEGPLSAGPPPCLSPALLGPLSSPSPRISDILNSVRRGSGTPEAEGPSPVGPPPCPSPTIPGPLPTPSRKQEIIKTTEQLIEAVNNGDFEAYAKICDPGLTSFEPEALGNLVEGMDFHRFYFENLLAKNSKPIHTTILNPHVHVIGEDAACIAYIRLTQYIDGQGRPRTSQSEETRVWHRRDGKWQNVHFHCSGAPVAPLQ
Sequence of Mitogen-activated protein kinase 14 (Q16539 whole entry): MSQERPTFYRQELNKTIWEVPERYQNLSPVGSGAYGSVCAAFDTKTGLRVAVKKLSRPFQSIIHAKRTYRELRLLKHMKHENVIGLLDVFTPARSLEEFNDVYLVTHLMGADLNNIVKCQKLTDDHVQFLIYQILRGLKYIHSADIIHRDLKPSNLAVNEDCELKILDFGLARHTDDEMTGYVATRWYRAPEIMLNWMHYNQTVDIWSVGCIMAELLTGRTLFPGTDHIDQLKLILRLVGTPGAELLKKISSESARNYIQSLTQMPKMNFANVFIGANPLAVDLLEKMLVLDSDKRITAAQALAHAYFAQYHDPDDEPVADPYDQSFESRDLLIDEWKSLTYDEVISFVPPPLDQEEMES
Sequence of Cyclin-dependent kinase 8 (P49336 whole entry): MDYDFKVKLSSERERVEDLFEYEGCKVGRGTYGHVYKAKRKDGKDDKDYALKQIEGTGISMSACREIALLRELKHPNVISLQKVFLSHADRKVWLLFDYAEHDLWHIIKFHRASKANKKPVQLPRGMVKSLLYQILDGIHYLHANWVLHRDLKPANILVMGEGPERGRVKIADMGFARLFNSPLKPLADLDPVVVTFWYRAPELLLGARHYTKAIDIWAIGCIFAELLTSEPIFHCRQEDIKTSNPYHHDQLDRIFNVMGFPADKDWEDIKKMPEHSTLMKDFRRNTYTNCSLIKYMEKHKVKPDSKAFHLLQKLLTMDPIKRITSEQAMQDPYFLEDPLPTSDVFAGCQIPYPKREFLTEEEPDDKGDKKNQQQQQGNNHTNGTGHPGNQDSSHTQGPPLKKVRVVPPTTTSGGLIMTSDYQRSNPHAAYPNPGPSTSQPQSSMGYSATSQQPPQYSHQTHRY
Sequence of Megakaryocyte-associated tyrosine-protein kinase (P42679 whole entry, canonical isoform): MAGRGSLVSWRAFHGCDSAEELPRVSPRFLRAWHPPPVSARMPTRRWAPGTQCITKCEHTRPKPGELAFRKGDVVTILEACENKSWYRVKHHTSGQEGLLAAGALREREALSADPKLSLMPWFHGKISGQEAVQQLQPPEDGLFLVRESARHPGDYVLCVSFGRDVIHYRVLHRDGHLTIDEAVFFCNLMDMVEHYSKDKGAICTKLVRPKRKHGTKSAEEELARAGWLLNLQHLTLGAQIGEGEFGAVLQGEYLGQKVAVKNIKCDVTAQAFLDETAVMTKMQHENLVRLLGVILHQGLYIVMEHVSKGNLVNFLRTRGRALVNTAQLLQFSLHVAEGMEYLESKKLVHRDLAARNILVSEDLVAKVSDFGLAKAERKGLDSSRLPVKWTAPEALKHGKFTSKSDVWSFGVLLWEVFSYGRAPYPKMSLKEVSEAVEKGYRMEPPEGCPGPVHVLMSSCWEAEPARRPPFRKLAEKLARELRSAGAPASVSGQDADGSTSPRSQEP
Sequence of Casein kinase I isoform delta (P48730 whole entry, canonical isoform): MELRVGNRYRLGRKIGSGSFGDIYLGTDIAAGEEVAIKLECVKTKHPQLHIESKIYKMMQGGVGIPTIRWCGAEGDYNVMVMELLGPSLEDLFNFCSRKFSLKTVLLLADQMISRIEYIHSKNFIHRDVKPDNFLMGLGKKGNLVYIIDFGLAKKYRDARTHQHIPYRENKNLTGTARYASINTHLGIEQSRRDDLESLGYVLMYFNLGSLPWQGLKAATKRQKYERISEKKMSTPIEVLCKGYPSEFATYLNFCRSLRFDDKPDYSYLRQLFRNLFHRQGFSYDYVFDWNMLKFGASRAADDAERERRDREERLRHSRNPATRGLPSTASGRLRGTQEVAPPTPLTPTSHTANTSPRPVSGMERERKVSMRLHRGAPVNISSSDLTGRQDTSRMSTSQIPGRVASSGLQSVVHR
Sequence of MAP kinase-activated protein kinase 5 (Q8IW41 whole entry): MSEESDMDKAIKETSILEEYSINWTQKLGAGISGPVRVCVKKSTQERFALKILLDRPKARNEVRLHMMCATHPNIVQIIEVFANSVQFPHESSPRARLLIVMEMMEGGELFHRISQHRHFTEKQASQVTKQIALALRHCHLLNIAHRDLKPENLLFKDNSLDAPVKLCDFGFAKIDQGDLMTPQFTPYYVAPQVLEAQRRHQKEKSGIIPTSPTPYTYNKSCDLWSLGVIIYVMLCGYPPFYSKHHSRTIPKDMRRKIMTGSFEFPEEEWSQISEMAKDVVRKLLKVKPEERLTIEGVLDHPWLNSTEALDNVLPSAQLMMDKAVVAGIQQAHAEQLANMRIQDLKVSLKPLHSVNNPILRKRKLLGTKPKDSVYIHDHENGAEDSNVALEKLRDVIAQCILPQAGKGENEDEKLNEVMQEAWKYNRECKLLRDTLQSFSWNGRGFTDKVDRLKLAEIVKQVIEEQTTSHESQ
Sequence of Calcium/calmodulin-dependent protein kinase type 1 (Q14012 whole entry): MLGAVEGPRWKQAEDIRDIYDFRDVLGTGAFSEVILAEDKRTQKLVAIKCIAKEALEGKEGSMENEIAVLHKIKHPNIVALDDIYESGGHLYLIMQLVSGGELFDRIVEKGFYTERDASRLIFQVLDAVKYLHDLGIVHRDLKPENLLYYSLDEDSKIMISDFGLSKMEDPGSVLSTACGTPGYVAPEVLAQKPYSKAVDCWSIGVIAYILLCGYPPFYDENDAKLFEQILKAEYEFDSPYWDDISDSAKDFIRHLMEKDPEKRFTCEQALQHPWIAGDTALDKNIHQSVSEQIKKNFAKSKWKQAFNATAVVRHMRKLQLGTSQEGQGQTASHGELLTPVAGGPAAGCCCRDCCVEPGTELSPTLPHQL
Sequence of Protein kinase C delta type (Q05655 whole entry): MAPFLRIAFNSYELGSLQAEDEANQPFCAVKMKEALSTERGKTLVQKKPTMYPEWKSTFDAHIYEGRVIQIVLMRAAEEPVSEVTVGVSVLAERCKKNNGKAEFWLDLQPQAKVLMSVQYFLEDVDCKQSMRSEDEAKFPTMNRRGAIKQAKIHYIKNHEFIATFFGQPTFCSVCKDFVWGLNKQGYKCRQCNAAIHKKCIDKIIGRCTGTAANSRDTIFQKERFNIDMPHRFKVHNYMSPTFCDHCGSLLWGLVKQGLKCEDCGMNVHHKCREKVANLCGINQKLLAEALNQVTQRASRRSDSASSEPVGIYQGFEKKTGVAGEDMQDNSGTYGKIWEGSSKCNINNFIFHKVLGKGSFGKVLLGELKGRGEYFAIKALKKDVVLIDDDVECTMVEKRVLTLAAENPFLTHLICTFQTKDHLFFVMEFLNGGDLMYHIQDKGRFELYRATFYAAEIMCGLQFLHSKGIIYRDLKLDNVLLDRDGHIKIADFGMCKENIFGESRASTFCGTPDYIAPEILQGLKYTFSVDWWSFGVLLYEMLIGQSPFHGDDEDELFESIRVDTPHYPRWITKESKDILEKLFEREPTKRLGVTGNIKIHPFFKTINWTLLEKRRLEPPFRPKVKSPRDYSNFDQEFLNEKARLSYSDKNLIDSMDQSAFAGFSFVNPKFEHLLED

SMILES | Ki [1] | Ki [2] | Ki [3] | IC50 [4] | IC50 [5] | other results
COc1ccc(C2=NNc3cccc4c(OC)ccc2c34)cc1OC | > 3.98 µM (inactive) | > 3.98 µM (inactive) | – | – | – | –
Cc1ccc(C)c(NC(=O)c2cc(-c3ccco3)nc3ccccc23)c1 | > 3.98 µM (inactive) | 1 µM (active) | > 3.98 µM (inactive) | – | – | –
CC(/C=C1\SC(=S)N(NS(=O)(=O)c2ccc(C)cc2)C1=O)=C\c1ccccc1 | – | – | – | 3.94 µM (active) | 3.12 µM (active) | –
CN1CCC(c2c(O)cc(O)c3c(=O)cc(-c4ccccc4Cl)oc23)C(O)C1 (centres undefined) | – | – | 3.98 µM (active) | – | – | Ki [6]: 5.01 µM (active); pKi [6]: 5.3; Ki [7]: > 3.16 µM (inactive); Ki [8]: 0.316 µM (active); Ki [9]: > 7.94 µM (inactive); Ki [10]: > 1.58 µM (inactive); Ki [11]: 1.26 µM (active); Ki [12]: 5.01 µM (active); Ki [13]: 0.501 µM (active)
Cc1ccc(NC2=C(NCCO)C(=O)c3ccccc3C2=O)cc1 | – | – | – | 9.12 µM (active) | 6.66 µM (active) | –
